Assay results from patent US20020115177A1, “Regulation of human histone deacetylase” (priority 2000, published 2002).

Assays:
[1] = system: histone deacetylase (SEQ ID NO:2); assay: Histone deacetylase assay with nuclear extract of recombinant HEK293 cells (3H-acetylated chicken core histones); assay type: biochemical, human; conditions: TSA 1 μM; 30° C. for 90 minutes; released radioactivity
Protocol: Carboxy-terminal myc tagged histone deacetylase (SEQ ID NO:2) was cloned into a pcDNA3.1 vector and transfected into HEK293 cells. Recombinant clones were isolated and analyzed for histone deacetylase (HDAC) activity using the following procedure. Eight million recombinant or control cells were rinsed in 10 ml. of cold PBS, scraped, and spun at 500× g for 5 minutes. The cell pellet was rinsed with cold PBS and transferred to an Eppendorf tube. Nuclei were prepared by lysing the cells in 1 ml of Buffer A (10 mM HEPES, pH 7.5, 10 mM KCl, 1.5mM MgCl2, 0.5% NP40 and a cocktail of protease inhibitors without EDTA) on ice for 30 minutes. The lysate was spun at 1500× g for 5 minutes, then the supernatant was discarded. The pellet was washed in Buffer A without NP40. The nuclear pellet was sonicated three times for 5 seconds each on ice in 0.5 ml of 20 mM HEPES pH7.5, 1.5mM MgCl2, 10% glycerol and a cocktail of protease inhibitors without EDTA. The nuclear lysate was spun at 100,000× g for 30 min. Fifty μl aliquots of supernantant were stored at −80° C.
A HDAC assay was carried out in 100 μL of 25mM HEPES pH 7.5 buffer containing 0.1 mg/ml BSA, 1 mM MgCl2, 0.005% Triton X-100, ^3H-acetylated chicken core histones, and varying (0.5 to 4 μg) amounts of nuclear extracts at 30° C. for 90 minutes. […] Released radioactivity was counted as a measure of HDAC activity. […]

[2] = system: human histone deacetylase; assay: Expression of human histone deacetylase in oligonucleotide-treated HCT116 cells, by Western blotting; assay type: cell-based; conditions: oligonucleotide 10 μM once per day for seven days
Protocol: The cell line used for testing is the human colon cancer cell line HCT116. Cells are cultured in RPMI-1640 with 10-15% fetal calf serum at a concentration of 10,000 cells per milliliter in a volume of 0.5 ml and kept at 37° C. in a 95% air/5%CO2 atmosphere. Phosphorothioate oligoribonucleotides are synthesized on an Applied Biosystems Model 380B DNA synthesizer using phosphoroamidite chemistry. A sequence of 24 bases complementary to the nucleotides at position 1 to 24 of SEQ ID NO: 1 is used as the test oligonucleotide. As a control, another (random) sequence is used: 5'-[NT] ID NO:23). Following assembly and deprotection, oligonucleotides are ethanol-precipitated twice, dried, and suspended in phosphate buffered saline at the desired concentration. Purity of the oligonucleotides is tested by capillary gel electrophoresis and ion exchange HPLC. The purified oligonucleotides are added to the culture medium at a concentration of 10 μM once per day for seven days. […] This effect is not observed with the control oligonucleotide. After 3 to 7 days, the number of cells in the cultures is counted using an automatic cell counter. The number of cells in cultures treated with the test oligonucleotide (expressed as 100%) is compared with the number of cells in cultures treated with the control oligonucleotide.

Compound	inhibition of HDAC activity of recombinant nuclear extract [1]	expression of human histone deacetylase as determined by Western blotting [2]
CC(/C=C/C(=O)NO)=C\[C@@H](C)C(=O)c1ccc(N(C)C)cc1 [TSA, Trichostatin A]	inhibited	
control oligonucleotide: Control (random) sequence: 5′-TCAACTGACTAGATGTACATGGAC-5′ (SEQ ID NO:23) (TCAACTGACTAGATGTACATGGAC; listed as DNA, chemistry not fully specified)		not observed
